Measurements from patent US5001240A, “Process for preparing optically active hydantoins” (Sanwa Kagaku Kenkyyusho Co., Ltd., priority 1986, dated 1991).
pIC50: −log10 of the molar value. Where two headings read alike, the source gives them in different places.

Tests used:
aldose reductase = biological target: T1, aldose reductase (Rattus norvegicus, UniProt P07943); assay: Inhibition of aldose reductase enzyme activity (Kador and Sharpless method, water soluble extracts of rat lenses); type: biochemical; conditions: for pIC50: rat lens extract; for inhibition at 0.02 µM: 2.0 × 10^-8 M
T1 construct: water soluble extracts of rat lenses; from tissue; host or cells: rat lens (water-soluble extract)

[1] = system: polyol increase in the sciatic nerve of galactosemic rats; assay: Reduction or inhibition of polyol (galactitol) increase in the sciatic nerve of galactosemic rats; type: in vivo, rat; conditions: for ED50: once a day for eight days, 30% galactose diet, sciatic nerve galactitol
Experimental: The compounds according to the invention were tested for their ability to reduce or inhibit polyol increase in the sciatic nerve of galactosemic rats. Rats were fed 30% galactose diet and were administered the compounds at the various doses of 0.4-50 mg/kg once a day for eight days. One day after the final administration (on 9th day), sciatic nerves were removed for galactitol determination. […] The selected control compounds are typical one described in the aforesaid Japanese Unexamined Patent Application Gazette.

[2] = Table 2, 3.3 × 10^-8 M, read-out: Inhibition (%)
[3] = Table 2, 10^-7 M, read-out: Inhibition (%)
[4] = Table 2, 10^-8 M, read-out: Inhibition (%)
[5] = Table 1, 3.3 × 10^-8 M, read-out: Inhibition (%)
[6] = Table 1, 10^-7 M, read-out: Inhibition (%)
[7] = Rattus norvegicus, 192 h, Table 4, read-out: ED50
[8] = Rattus norvegicus, 192 h, Table 3, read-out: ED50
[9] = Table 1, 10^-5 M, read-out: Inhibition (%)

For `NC(=O)C1CC2(NC(=O)NC2=O)c2cc(F)cc(N)c2O1` (racemic) [M, dl-8-Amino-6-fluoro-2,3-dihydro-2',5'-dioxo-spiro[4H-1-benzopyran-4,4'-imidazolidine]-2-carboxamide], the inhibition at 0.033 µM (aldose reductase; [2]) was 40%, the inhibition at 0.1 µM (aldose reductase; [3]) was 74% and the inhibition at 0.01 µM (aldose reductase; [4]) was 13%. For the same compound, the pIC50 (aldose reductase; Table 2) was 7.36.
In the case of `O=C1NC(=O)C2(CC(CBr)Oc3ccc(F)cc32)N1` (racemic) [G, dl-2-Bromomethyl-6-fluoro-2,3-dihydro-spiro[4H-1-benzopyran-4,4'-imidazolidine]-2',5'-dione], the inhibition at 0.33 µM (aldose reductase; Table 1, 3.3 × 10^-7 M) was 70%, the inhibition at 0.033 µM (aldose reductase; [5]) was 22% and the inhibition at 0.1 µM (aldose reductase; [6]) was 42%. The pIC50 (aldose reductase; Table 1) was 6.89 and the ED50 [1, 7] was 7.2 mg/kg.
Compound `NC(=O)[C@H]1CC2(NC(=O)NC2=O)c2cc(F)ccc2O1` (stereo partly drawn) [B, d-6-Fluoro-2,3-dihydro-2',5'-dioxo-spiro[4H-1-benzopyran-4,4'-imidazolidine]-2-carboxamide] has an inhibition at 0.01 µM (aldose reductase) of 39%, an inhibition at 0.033 µM (aldose reductase) of 80% and an inhibition at 0.1 µM (aldose reductase) of 93%. The ED50 [1, 8] was 1.3 mg/kg.
In the case of `CC(=O)Nc1cc(F)cc2c1O[C@@H](C(N)=O)CC21NC(=O)NC1=O` (stereo partly drawn) [P, d-8-Acetamido-6-fluoro-2,3-dihydro-2',5'-dioxo-spiro[4H-1-benzopyran-4,4'-imidazolidine]-2-carboxamide], the inhibition at 0.02 µM (aldose reductase; Table 2) was 56%, the inhibition at 0.033 µM (aldose reductase; [2]) was 69% and the inhibition at 0.01 µM (aldose reductase; [4]) was 30%. For the same compound, the pIC50 (aldose reductase; Table 2) was 7.74.
In the case of `O=C1NC(=O)C2(CCOc3ccc(F)cc32)N1` (stereo not drawn) [R, d-6-Fluoro-2,3-dihydro-spiro[4H-1-benzopyran-4,4'-imidazolidine]-2',5'-dione, reference compound], the “Inhibition (%)” value (aldose reductase; Table 1, 3.3 × 10^-6) was 88%, the “Inhibition (%)” value (aldose reductase; Table 1, 3.3 × 10^-7 M) was 61% and the “Inhibition (%)” value (aldose reductase; Table 1, 3.3 × 10^-8 M) was 15%. For the same compound, the “Inhibition (%)” value (aldose reductase; Table 1, 10^-6 M) was 80%, the “Inhibition (%)” value (aldose reductase; Table 1, 10^-7 M) was 34% and the inhibition at 0.33 µM (aldose reductase; Table 2, 3.3 × 10^-7 M) was 59%. The inhibition at 0.033 µM (aldose reductase; [2]) was 24%, the inhibition at 1 µM (aldose reductase; Table 2, 10^-6 M) was 76% and the inhibition at 0.1 µM (aldose reductase; [3]) was 29%. It also gave an ED50 ([1]; Table 3) of 18.0 mg/kg.
In the case of `O=C1NC(=O)C2(CC(CBr)Oc3ccc(F)cc32)N1` (stereo not drawn) [I, 1-2-Bromomethyl-6-fluoro-2,3-dihydro-spiro[4H-1-benzopyran-4,4'-imidazolidine]-2',5'-dione], the inhibition at 3.3 µM (aldose reductase; Table 1, 3.3 × 10^-6) was 54%, the inhibition at 10 µM (aldose reductase; [9]) was 75% and the inhibition at 1 µM (aldose reductase; Table 1, 10^-6 M) was 31%. For the same compound, the pIC50 (aldose reductase; Table 1) was 5.57.
`O=C1NC(=O)C2(CCOc3ccc(F)cc32)N1` (stereo not drawn) [Q, d1-6-Fluoro-2,3-dihydro-spiro[4H-1-benzopyran-4,4'-imidazolidine]-2',5'-dione, reference compound] showed an inhibition at 3.3 µM (aldose reductase; Table 1, 3.3 × 10^-6) of 85%, an inhibition at 0.33 µM (aldose reductase; Table 1, 3.3 × 10^-7 M) of 46% and an inhibition at 0.033 µM (aldose reductase; [5]) of 10%. It also gave an inhibition at 1 µM (aldose reductase; Table 1, 10^-6 M) of 71%, an inhibition at 0.1 µM (aldose reductase; [6]) of 17% and an ED50 [1, 7] of 31.5 mg/kg. For the same compound, the ED50 ([1]; Table 3) was 36.6 mg/kg.
Compound `NC(=O)[C@H]1CC2(NC(=O)NC2=O)c2cc(F)cc(N)c2O1` (stereo partly drawn) [K, d-8-Amino-6-fluoro-2,3-dihydro-2',5'-dioxo-spiro[4H-1-benzopyran-4,4'-imidazolidine]-2-carboxamide] has an inhibition at 0.033 µM (aldose reductase; [2]) of 60%, an inhibition at 0.1 µM (aldose reductase; [3]) of 70% and an inhibition at 0.01 µM (aldose reductase; [4]) of 27%. The pIC50 (aldose reductase; Table 2) was 7.60.
`O=C1NC(=O)C2(CC(CBr)Oc3ccc(F)cc32)N1` (stereo not drawn) [H, d-2-Bromomethyl-6-fluoro-2,3-dihydro-spiro[4H-1-benzopyran-4,4'-imidazolidine]-2',5'-dione] was tested, and the inhibition at 0.33 µM (aldose reductase; Table 1, 3.3 × 10^-7 M) was 82%, the inhibition at 0.033 µM (aldose reductase; [5]) was 35% and the inhibition at 0.1 µM (aldose reductase; [6]) was 59%. For the same compound, the pIC50 (aldose reductase; Table 1) was 7.17 and the ED50 [1, 7] was 2.2 mg/kg.
Compound `O=C1NC(=O)C2(CC(CCl)Oc3ccc(F)cc32)N1` (stereo not drawn) [Compound E, d-2-Chloromethyl-6-fluoro-2,3-dihydro-spiro[4H-1-benzopyran-4,4'-imidazolidine]-2',5'-dione] has an inhibition at 0.033 µM (aldose reductase; [5]) of 38%, an inhibition at 0.1 µM (aldose reductase; [6]) of 66% and an inhibition at 0.01 µM (aldose reductase; Table 1, 10^-8 M, read-out: Inhibition (%)) of 21%. It also gave a pIC50 (aldose reductase; Table 1) of 7.33 and an ED50 [1, 7] of 0.6 mg/kg.
In the case of `O=C1NC(=O)C2(CC(CCl)Oc3c([N+](=O)[O-])cc(F)cc32)N1` (racemic) [N, dl-2-Chloromethyl-6-fluoro-2,3-dihydro-8-nitro-spiro[4H-1-benzopyran-4,4'-imidazolidine]-2',5'-dione], the inhibition at 0.33 µM (aldose reductase; Table 2, 3.3 × 10^-7 M) was 81%, the inhibition at 0.033 µM (aldose reductase; [2]) was 30% and the inhibition at 0.1 µM (aldose reductase; [3]) was 59%. It also gave a pIC50 (aldose reductase; Table 2) of 7.12.
Work on `NC(=O)C1CC2(NC(=O)NC2=O)c2cc(F)ccc2O1` (stereo not drawn) [C, 1-6-Fluoro-2,3-dihydro-2',5'-dioxo-spiro[4H-1-benzopyran-4,4'-imidazolidine]-2-carboxamide] yielded an inhibition at 10 µM (aldose reductase) of 27%.
In the case of `NC(=O)C1CC2(NC(=O)NC2=O)c2cc(F)cc([N+](=O)[O-])c2O1` (racemic) [L, dl-6-Fluoro-2,3-dihydro-8-nitro-2',5'-dioxo-spiro[4H-1-benzopyran-4,4'-imidazolidine]-2-carboxamide], the inhibition at 0.033 µM (aldose reductase; [2]) was 50%, the inhibition at 0.1 µM (aldose reductase; [3]) was 88% and the inhibition at 0.01 µM (aldose reductase; [4]) was 15%. It also gave a pIC50 (aldose reductase; Table 2) of 7.51.
Compound `O=C1NC(=O)C2(CC(CCl)Oc3ccc(F)cc32)N1` (stereo not drawn) [F, 1-2-Chloromethyl-6-fluoro-2,3-dihydro-spiro[4H-1-benzopyran-4,4'-imidazolidine]-2',5'-dione] has an inhibition at 3.3 µM (aldose reductase; Table 1, 3.3 × 10^-6) of 52%, an inhibition at 10 µM (aldose reductase; [9]) of 74% and an inhibition at 1 µM (aldose reductase; Table 1, 10^-6 M) of 28%. For the same compound, the pIC50 (aldose reductase; Table 1) was 5.54.
With `O=C1NC(=O)C2(CC(CCl)Oc3ccc(F)cc32)N1` (racemic) [D, dl-2-Chloromethyl-6-fluoro-2,3-dihydro-spiro[4H-1-benzopyran-4,4'-imidazolidine]-2',5'-dione] the inhibition at 0.33 µM (aldose reductase; Table 1, 3.3 × 10^-7 M) was 78%, the inhibition at 0.033 µM (aldose reductase; [5]) was 28% and the inhibition at 0.1 µM (aldose reductase; [6]) was 53%. For the same compound, the pIC50 (aldose reductase; Table 1) was 7.05 and the ED50 [1, 7] was 1.3 mg/kg.
Work on `Nc1cc(F)cc2c1OC(CCl)CC21NC(=O)NC1=O` (racemic) [O, dl-8-Amino-2-chloromethyl-6-fluoro-2,3-dihydro-spiro[4H-1-benzopyran-4,4'-imidazolidine]-2',5'-dione] yielded an inhibition at 0.33 µM (aldose reductase; Table 2, 3.3 × 10^-7 M) of 68%, an inhibition at 1 µM (aldose reductase; Table 2, 10^-6 M) of 85% and an inhibition at 0.1 µM (aldose reductase; [3]) of 38%. It also gave a pIC50 (aldose reductase; Table 2) of 6.77.
For `NC(=O)[C@H]1CC2(NC(=O)NC2=O)c2cc(F)cc([N+](=O)[O-])c2O1` (stereo partly drawn) [J, d-6-Fluoro-2,3-dihydro-8-nitro-2',5'-dioxo-spiro[4H-1-benzopyran-4,4'-imidazolidine]-2-carboxamide], the inhibition at 0.02 µM (aldose reductase; Table 2) was 69%, the inhibition at 0.033 µM (aldose reductase; [2]) was 82% and the inhibition at 0.01 µM (aldose reductase; [4]) was 35%. It also gave a pIC50 (aldose reductase; Table 2) of 7.85.
For `O=C1NC(=O)C2(CCOc3ccc(F)cc32)N1` (stereo not drawn) [S, 1-6-Fluoro-2,3-dihydro-spiro[4H-1-benzopyran-4,4'-imidazolidine]-2',5'-dione, reference compound], the inhibition at 10 µM (aldose reductase; [9]) was 32%.
With `O=C1NC(=O)C2(CC(C(=O)O)Oc3ccc(F)cc32)N1` (racemic) [Example 1, dl-6-fluoro-2,3-dihydro-2',5'-dioxo-spiro[4H-1-benzopyran-4,4'-imidazolidine]-2-carboxylic acid] the “potency of the major diastereomer vs minor diastereomer in inhibition of polyol increase” value ([1]; sciatic nerve of galactosemic rats) was “higher than that of the minor diastereomer”.
`NC(=O)C1CC2(NC(=O)NC2=O)c2cc(F)ccc2O1` (racemic) [A, dl-6-Fluoro-2,3-dihydro-2',5'-dioxo-spiro[4H-1-benzopyran-4,4'-imidazolidine]-2-carboxamide] showed an inhibition at 0.01 µM (aldose reductase) of 21%, an inhibition at 0.033 µM (aldose reductase) of 51% and an inhibition at 0.1 µM (aldose reductase) of 80%. For the same compound, the ED50 [1, 8] was 3.3 mg/kg.
